Measurements reported in PubChem BioAssay (NCI).
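Where inhibition never reached the appropriate level, the endpoint shown equals the highest concentration tested. Otherwise, values were interpolated linearly from a five-concentration, 48-hour dose response in 96-well plates. TGI marks complete inhibition of growth.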

Assays:
Assay in all cases: NCI-60 cell line screen, 48 h
[1] = test system: 786-0 renal
[2] = test system: A498 renal
[3] = test system: A549 NSCLC
[4] = test system: ACHN renal
[5] = test system: BT-549 breast
[6] = test system: CAKI-1 renal
[7] = test system: CCRF-CEM leukemia
[8] = test system: COLO 205 colon
[9] = test system: DU-145 prostate
[10] = test system: EKVX NSCLC
[11] = test system: HCC-2998 colon
[12] = test system: HCT-116 colon
[13] = test system: HCT-15 colon
[14] = test system: HL-60(TB) leukemia
[15] = test system: HOP-62 NSCLC
[16] = test system: HOP-92 NSCLC
[17] = test system: HS 578T breast
[18] = test system: HT29 colon
[19] = test system: IGROV1 ovarian
[20] = test system: K-562 leukemia
[21] = test system: KM12 colon
[22] = test system: LOX IMVI melanoma
[23] = test system: M14 melanoma
[24] = test system: MALME-3M melanoma
[25] = test system: MCF7 breast
[26] = test system: MDA-MB-231 breast
[27] = test system: MDA-MB-435
[28] = test system: MDA-N
[29] = test system: MOLT-4 leukemia
[30] = test system: NCI-H226 lung
[31] = test system: NCI-H23 lung
[32] = test system: NCI-H460 lung
[33] = test system: NCI-H522 lung
[34] = test system: NCI/ADR-RES ovarian
[35] = test system: OVCAR-3 ovarian
[36] = test system: OVCAR-4 ovarian
[37] = test system: OVCAR-5 ovarian
[38] = test system: OVCAR-8 ovarian
[39] = test system: PC-3 prostate
[40] = test system: RPMI-8226 leukemia
[41] = test system: RXF 393 renal
[42] = test system: SF-268 CNS
[43] = test system: SF-295 CNS
[44] = test system: SF-539 CNS
[45] = test system: SK-MEL-2 melanoma
[46] = test system: SK-MEL-28 melanoma
[47] = test system: SK-MEL-5 melanoma
[48] = test system: SK-OV-3 ovarian
[49] = test system: SN12C renal
[50] = test system: SNB-19 CNS
[51] = test system: SNB-75 CNS
[52] = test system: SR leukemia
[53] = test system: SW-620 colon
[54] = test system: T-47D breast
[55] = test system: TK-10 renal
[56] = test system: U251 CNS
[57] = test system: UACC-257 melanoma
[58] = test system: UACC-62 melanoma
[59] = test system: UO-31 renal

With `C[C@]12OC(=O)[C@]3(O)CC[C@H]4[C@@H](C[C@@H](O)[C@@]5(Cl)CC=CC(=O)[C@]45C)[C@]45OCC6C(=O)O[C@@H]1C[C@@]6(C)[C@H](C4=O)[C@@]32O5` (stereo partly drawn) the TGI [1] was 11.3 µM, the TGI [2] was 2.91 µM and the TGI [3] was 75 µM. For the same compound, the TGI [4] was 5.9 µM, the TGI [5] was 2.27 µM and the TGI [6] was 4.03 µM. The TGI [7] was 6.69 µM, the TGI [8] was 17.1 µM and the TGI [9] was 24.3 µM. For the same compound, the TGI [10] was 4.91 µM, the TGI [11] was 2.55 µM and the TGI [12] was 12 µM. It also gave a TGI [13] of 7.61 µM, a TGI [14] of 12.8 µM and a TGI [15] of 10.3 µM. It also gave a TGI [16] of 5.68 µM, a TGI [17] of 44.5 µM and a TGI [18] of 5.35 µM. The TGI [19] was 2.74 µM, the TGI [20] was 23.8 µM and the TGI [21] was 8.59 µM. It also gave a TGI [22] of 6.46 µM, a TGI [23] of 2.47 µM and a TGI [24] of 5.04 µM. It also gave a TGI [25] of 4 µM, a TGI [26] of 28.6 µM and a TGI [27] of 23.8 µM. The TGI [28] was 17 µM, the TGI [29] was 17.4 µM and the TGI [30] was 9.37 µM. The TGI [31] was 1.83 µM, the TGI [32] was 9.54 µM and the TGI [33] was 1.14 µM. For the same compound, the TGI [34] was 60.6 µM, the TGI [35] was 6.65 µM and the TGI [36] was 8.63 µM. It also gave a TGI [37] of 3.23 µM, a TGI [38] of 8.39 µM and a TGI [39] of 8.71 µM. For the same compound, the TGI [40] was 8.6 µM, the TGI [41] was 1.04 µM and the TGI [42] was 7.39 µM. The TGI [43] was 12.4 µM, the TGI [44] was 1.97 µM and the TGI [45] was 2.71 µM. It also gave a TGI [46] of 75 µM, a TGI [47] of 13.2 µM and a TGI [48] of 10.9 µM. The TGI [49] was 19.3 µM, the TGI [50] was 18.2 µM and the TGI [51] was 19.6 µM. The TGI [52] was 14.2 µM, the TGI [53] was 12.6 µM and the TGI [54] was 23.3 µM. For the same compound, the TGI [55] was 7.18 µM, the TGI [56] was 15 µM and the TGI [57] was 8.2 µM. For the same compound, the TGI [58] was 4.2 µM and the TGI [59] was 2.57 µM.
`C=C1C(=O)O[C@@H]2C[C@@H]3[C@]4(CC[C@]5(C)[C@@H]([C@H](C)CC/C=C(\C)C=O)CC[C@@]35C)C[C@]4(CCC(=O)OC)[C@H]12` was tested, and the TGI [1] was 3.23 µM, the TGI [2] was 5.33 µM and the TGI [3] was 13.9 µM. For the same compound, the TGI [4] was 3.89 µM, the TGI [5] was 5.01 µM and the TGI [6] was 6.7 µM. It also gave a TGI [7] of 0.617 µM, a TGI [8] of 5.64 µM and a TGI [9] of 3.31 µM. It also gave a TGI [10] of 7.55 µM, a TGI [11] of 4.1 µM and a TGI [12] of 2.03 µM. It also gave a TGI [13] of 3.71 µM, a TGI [14] of 1.29 µM and a TGI [15] of 4.21 µM. The TGI [16] was 3.88 µM, the TGI [17] was 6.77 µM and the TGI [18] was 11 µM. For the same compound, the TGI [19] was 4.63 µM, the TGI [20] was 2.67 µM and the TGI [21] was 3.89 µM. The TGI [22] was 2.61 µM, the TGI [23] was 2.91 µM and the TGI [24] was 3.05 µM. It also gave a TGI [25] of 2.9 µM, a TGI [26] of 3.66 µM and a TGI [27] of 3.16 µM. For the same compound, the TGI [28] was 3.42 µM, the TGI [29] was 2.94 µM and the TGI [30] was 10.8 µM. It also gave a TGI [31] of 3.77 µM, a TGI [32] of 9.13 µM and a TGI [33] of 8.91 µM. The TGI [34] was 7.99 µM, the TGI [35] was 3.02 µM and the TGI [36] was 3.62 µM. It also gave a TGI [37] of 3.96 µM, a TGI [38] of 2.15 µM and a TGI [39] of 4.48 µM. The TGI [40] was 1.22 µM, the TGI [41] was 3.56 µM and the TGI [42] was 2.73 µM. For the same compound, the TGI [43] was 4.54 µM, the TGI [44] was 4.22 µM and the TGI [45] was 3.43 µM. For the same compound, the TGI [46] was 3.99 µM, the TGI [47] was 2.3 µM and the TGI [48] was 6.72 µM. It also gave a TGI [49] of 3.85 µM, a TGI [50] of 3.9 µM and a TGI [51] of 4.51 µM. It also gave a TGI [52] of 2.32 µM, a TGI [53] of 4.11 µM and a TGI [54] of 4.93 µM. The TGI [55] was 3.99 µM, the TGI [56] was 2.86 µM and the TGI [57] was 1.13 µM. For the same compound, the TGI [58] was 3.06 µM and the TGI [59] was 3.53 µM.
